According to PMC5943252, “Contrasting roles for actin in the cellular uptake of cell penetrating peptide conjugates” (Scientific Reports, 2018):

Key:
Type in all cases: cell-based
[1] = system: actin architecture in A431 cells; assay: Actin cytoskeleton visualisation (Rh-P staining, confocal microscopy); conditions: A431 cells, Rh-P staining; for effect on actin cytoskeleton: 30 min
Experimental: Analysis was performed on a Leica SP5 confocal laser scanning microscope, equipped with laser lines: 405 Blue Diode (Excitation wavelength 405 nm for Hoechst 33342) Argon (Excitation wavelength 488 nm for Alexa 488 or EGFP), Helium Neon Laser 1 (Excitation wavelength 543 nm for Tetramethyl-Rhodamine Phalloidin (Rh-P)) and Laser 2 (Excitation wavelength 633 nm for Alexa 647 conjugates). All images presented in this study were obtained using a HCX PL APO 63x 1.4 NA oil immersion objective with Leica Type F immersion oil. Parameters “Gain” and “Off-set” of the individual photomultiplier tubes were adjusted between experiments in order to obtain optimal image acquisition avoiding saturation. For multi-channel image acquisition, the channels were scanned in a sequential recording mode to avoid spectral cross-talk caused by overlapping excitation and/or emission spectra of fluorophores. Acquisition mode “XYZ” and image resolutions (pixels/image) of 512 × 512 or 1024 × 1024 were selected and pinhole size was set to 1 Airy Unit. Depending on acquisition requirements the scan speed was set as either 400 or 700 Hz and for single section images, the same optical section was scanned 3x to generate a line average image. Captured images were then analysed using ImageJ. In some cases (live cell imaging) the same cells were also imaged using […] microscopy (DIC).
A recently described method was utilised giving information on actin architecture at different regions of the cells termed basal and cell body and apex (CBA). For actin staining, HeLa (0.5 × 10^6 cells/well) or A431 (1.0 × 10^6 cells/well) cells in 2.5 mL D-MEM containing 10% FBS were seeded on round borosilicate No.1.5 cover slips in 6 –well plates and allowed to adhere for 24 hr at 37 °C/5% CO2, to reach a confluence of ~80%. The cells were then treated with actin disrupters as described above, washed 3x with PBS and fixed for 15 min at room temperature with 3% PFA in PBS. Cells were then washed 3x with PBS and permeabilised with 0.2% Triton X-100 in PBS at room temperature for 5 min, washed 3x with PBS and stained for cell nuclei with 1.0 µg/ml Hoechst 33342 in PBS and for polymerised actin with 1.0 µg/ml Rh-P in PBS for 15 min at room temperature. The cells were finally washed 3x with PBS and once with distilled water, coverslips were mounted in DAKO mounting medium on glass microscope slides and imaged by confocal microscopy.

A431 cells [2] = assay: Flow cytometry of cellular uptake of EGFP-R8 in the presence of actin inhibitors; conditions: for Normalised Fluoresence Intensity (EGFP-R8): mean of geometric means, three independent experiments
Experimental: A431 cells were seeded onto 12-well plates and cultured for 24 hr to be ~80% confluent on the day of experiment. Cells were washed twice with PBS and then incubated with diluent control (DMSO/dH2O) or actin inhibitors as previously described. They were then loaded with serum-free DMEM containing either 2 µM EGFP-R8, 5 µg/ml TF-647 or 0.1 mg/ml Dex-647 in the presence or absence of actin inhibitors for times stipulated in the figure legends. The plates were then placed on ice to prevent further uptake and washed 3x with either ice-cold PBS or 0.5 mg/ml heparin in PBS. To remove the plasma membrane bound TF, cells were washed 3x with ice-cold PBS followed by an incubation for 1 min in ice-cold acid wash (0.2 M acetic acid, 0.2 M NaCl, pH 2.0)[33]. All cells were then washed twice with PBS at room temperature before trypsinisation at 37 °C for 5 min before placing the detached cells in centrifuge tubes and centrifuging at 4 °C for 3 min at 800 × g. The obtained cell suspension was washed 3x with ice-cold PBS and finally resuspended in 300 µl ice-cold PBS for measurement of cell-associated fluorescence (cell gate 50,000 cells) by flow cytometry on a BD FACSVerse utilising a 488 laser and 527/32 filter for EGFP analysis and a 633 nm laser and 660/10 filter for Alexa 647. Cells were gated using FSC-A/SSC-A to isolate single cell populations and analysed using FlowJo.
Flow cytometry measurements represent the mean fluorescence from three independent experiments performed in duplicate, where each individual data point was the geometric mean. A two-tailed unpaired Students t-test was used to test for differences within experiments. Significant differences were classed as having a P value of < 0.05.

A431 cells [3] = assay: Live cell confocal microscopy of uptake of endocytic probes and R8 conjugates, with or without actin inhibitors
Experimental: HeLa or A431 cells were seeded on 35 mm MatTek dishes (Ashland, US) at respective densities of 5 × 10^5 cells/dish and 1.0 × 10^6 cells/dish and maintained in 2.5 mL D-MEM containing 10%, 100 IU/mL penicillin and 100 µg/mL streptomycin. Cells were then allowed to adhere for 24 hr at 37 °C/5% CO2 to reach a confluence of ~80%. On the day of experimentation, they were washed with PBS and then incubated with 100 µl serum-free D-MEM (thus reducing well described serum binding effects[32]) containing either 2 µM CPP conjugate (R8-Alexa488 or EGFP-R8), 5 µg/ml transferrin-Alexa 647 (TF-647) or 0.1 mg/ml dextran (10 kDa)-Alexa 647 (Dex-647). The cells were then incubated for 1 hr (or 30 min for TF-647) at 37 °C/5% CO2 before washing 3x with PBS (TF-647 or Dex-647) or PBS 0.5 mg/mL heparin (R8-conjugates). They were then washed once with PBS, prior to the addition of 2 mL of imaging medium (phenol red free RPMI, 20 mM HEPES pH 7.4) and analysis by live cell confocal microscopy.
Cells were seeded on MatTek dishes as previously described and were washed with PBS before preincubation at 37 °C with diluent control (DMSO) or actin inhibitors: 10 µM Cyt D for 15 min; 0.1–1 µM Lat B for 30 min; 0.2–4 µM JAS for 45 min; 50–100 µM Y27632 for 4 hr in serum-free D-MEM at 37 °C/5% CO2. Endocytic probes (TF-647, Dex-647) or R8-conjugates were then incubated with the cells in the absence (control) or presence of the inhibitors and further incubated at 37 °C/5% CO2 for times specified in figure legends prior to analysis by confocal microscopy. For pulse chase experiments, A431 cells were incubated with 0.1 mg/ml Dex-647 for 2 hr (pulse) followed by washing and a further 4 hr (chase) in fresh complete growth medium. EGFP-R8 (2 µM) was then added for 1 hr in the absence or presence of 10 µM Cyt D. EGFP-R8 and Dex-647 subcellular distribution was then analysed in live cells using confocal microscopy. For low temperature experiments, cells were preincubated with Cyt D as above and then placed on ice for 2 min prior to addition of ice cold EGFP-R8. The cells were then maintained under these conditions for 1 hr prior to analysis by confocal microscopy.
Analysis was performed on a Leica SP5 confocal laser scanning microscope, equipped with laser lines: 405 Blue Diode (Excitation wavelength 405 nm for Hoechst 33342) Argon (Excitation wavelength 488 nm for Alexa 488 or EGFP), Helium Neon Laser 1 (Excitation wavelength 543 nm for Tetramethyl-Rhodamine Phalloidin (Rh-P)) and Laser 2 (Excitation wavelength 633 nm for Alexa 647 conjugates). All images presented in this study were obtained using a HCX PL APO 63x 1.4 NA oil immersion objective with Leica Type F immersion oil. Parameters “Gain” and “Off-set” of the individual photomultiplier tubes were adjusted between experiments in order to obtain optimal image acquisition avoiding saturation. For multi-channel image acquisition, the channels were scanned in a sequential recording mode to avoid spectral cross-talk caused by overlapping excitation and/or emission spectra of fluorophores. Acquisition mode “XYZ” and image resolutions (pixels/image) of 512 × 512 or 1024 × 1024 were selected and pinhole size was set to 1 Airy Unit. Depending on acquisition requirements the scan speed was set as either 400 or 700 Hz and for single section images, the same optical section was scanned 3x to generate a line average image. Captured images were then analysed using ImageJ. […]

[4] = 0.5 µM Lat B, 30 min preincubation, then 2 µM EGFP-R8 for 1 hr with Lat B

Compound	effect on actin organisation ([1]; 0.2 µM JAS, 45 min, basal and CBA regions)	effect on actin organisation ([1]; 2 µM JAS, 45 min)	effect on actin organisation (actin staining) ([1]; 4 µM JAS, 45 min)	Normalised Fluoresence Intensity (EGFP-R8) (A431 cells [2]; 4 µM JAS, 45 min preincubation, then 2 µM EGFP-R8 for 1 hr with JAS)	fold increase in fluorescence (EGFP-R8 uptake) (A431 cells [2]; 4 µM JAS, 45 min preincubation, then 2 µM EGFP-R8 for 1 hr with JAS, vs diluent control (0.4% v/v DMSO), P = 0.0025)	effect on EGFP-R8 uptake (A431 cells [3]; 2–4 µM JAS, 45 min preincubation, then 2 µM EGFP-R8 for 1 hr with JAS)	effect on actin cytoskeleton ([1]; 0.1 μM Lat B, basal and CBA sections)	effect on actin cytoskeleton ([1]; 0.5 μM Lat B)	effect on actin cytoskeleton ([1]; 1 μM Lat B)	fold increase in uptake (EGFP-R8) (A431 cells [2]; 0.5 µM Lat B, 30 min preincubation, then 2 µM EGFP-R8 for 1 hr with Lat B, heparin wash, vs diluent control, P = 0.0045) [fold]	Normalised Fluoresence Intensity (EGFP-R8) (A431 cells [2]; [4])	effect on cell associated EGFP-R8 fluorescence (A431 cells [3]; [4])
C/C1=C\[C@H](C)C[C@H](C)OC(=O)C[C@H](c2ccc(O)cc2)NC(=O)[C@@H](Cc2c(Br)[nH]c3ccccc23)N(C)C(=O)[C@H](C)NC(=O)[C@@H](C)C1 [JAS, Jasplakinolide]	actin staining was more prominent on the cell periphery	actin staining appeared in large clumps	completely lost from all cells	4.00	four	dramatic increase						
C/C1=C/C(=O)O[C@@H]2C[C@@H](CC[C@H](C)/C=C\CC1)O[C@@](O)([C@@H]1CSC(=O)N1)C2 [Lat B, Latrunculin B]							formation of small actin aggregates	these aggregates were extremely prominent	major disruption of the actin organisation	6.23	6.23	much higher fluorescence compared to controls
